Laboratory results as given in patent US11459327B1, “Cycloalkyl and hetero-cycloalkyl inhibitors, preparation methods therefor, and use thereof” (Suzhou Zelgen Biopharmaceuticals Co., Ltd., priority 2019, dated 2022).

What follows are molecules tested on NCI-H358(KRAS^G12C mutation) cells (assay: Cell assay of antiproliferative activity (Celltiter-Glo, 5 days) against NCI-H358 cells). Conditions: 5 days incubation.
Type: cell-based
Experimental: Cell assay of antiproliferative activity of compounds against NCI-H358(KRAS^G12C mutation) and A549(KRAS^G12S mutation) cells.
40 μl phosphate buffer was added to the outer wells of the 384 microplate, and 40 μl cell suspension to be tested was added to the other wells. Then the microplate was incubated in a carbon dioxide incubator overnight.
The compounds to be tested were gradiently diluted, each compound was performed 10 concentration gradients (diluted from 50 μM to 0.003 μM) and added 100 nL to the corresponding wells in the microplate. After addition, 40 μl of phosphate buffer was added to each well in rows A and P and columns 1 and 24, and then the microplate was incubated in a carbon dioxide incubator for 5 days.
20 μL of Promega Celltiter-Glo reagent was added to each well of the microplate, and then the luminescence signal was stabilized by oscillating at room temperature for 10 min. Then PekinElmer Envision multi-label analyzer was used to read.
Finally, GraphPad Prism software was used to calculate the IC50 value of the compound and the fitting curve was drawn.
Anti-proliferative activity of the compounds of the present invention against NCI-H358(KRAS^G12C mutation) and A549(KRAS^G12S mutation) cells were shown in Table 1.

Structure (SMILES) | IC50 [nM]
C=CC(=O)N1CCN(c2nc(OCCN(C)CC3(F)CC3)nc3c2CCN(c2cccc4cccc(C)c24)C3)CC1CC#N (stereo not shown) [Example 80, 2-(1-acroloyl-4-(2-(2-(((1-fluorocyclopropyl)methyl) (methyl)amino)ethoxy)-7-(8-methylnaphthalen-1-yl)-5,6,7,8-tetrahydropyrido[3,4-d]pyrimidin-4-yl)piperazin-2-yl) acetonitrile] | < 100
C=CC(=O)N1CCN(c2nc(OC[C@H](C)N(C)C3CCC3)nc3c2CCN(c2cccc4cccc(C)c24)C3)C[C@@H]1CC#N [Example 91A, 2-((S)-1-acroloyl-4-(2-((S)-2-(cyclobutyl(methyl)amino)propoxy)-7-(8-methylnaphthalen-1-yl)-5,6,7,8-tetrahydropyrido[3,4-d]pyrimidin-4-yl)piperazin-2-yl) acetonitrile] | < 30
C=CC(=O)N1CCN(c2nc(OC[C@H](C)N(C)C3CCC3)nc3c2CCN(c2cccc4cccc(C)c24)C3)C[C@H]1CC#N [Example 91B, 2-((R)-1-acroloyl-4-(2-((S)-2-(cyclobutyl(methyl)amino)propoxy)-7-(8-methylnaphthalen-1-yl)-5,6,7,8-tetrahydropyrido[3,4-d]pyrimidin-4-yl)piperazin-2-yl) acetonitrile] | < 1000

Same assay, conditions: Homo sapiens, NCI-H358, 120 h, 5 days incubation

Structure (SMILES) | IC50 [nM]
C=C(F)C(=O)N1CCN(c2nc(OCC3(CN(C)C(C)C)CC3)nc3c2CCN(c2cccc4cccc(Cl)c24)C3)C[C@@H]1CC#N [Example 56, (S)-2-(4-(7-(8-chloronaphthalen-1-yl)-2-((1-((isopropyl(methyl)amino)methyl)cyclopropyl)methoxy)-5,6,7,8-tetrahydropyrido[3,4-d]pyrimidin-4-yl)-1-(2-fluoroacroloyl)piperazin-2-yl) acetonitrile] | 61
C=C(F)C(=O)N1CCN(c2nc(OCC3(CS(C)(=O)=O)CC3)nc3c2CCN(c2cccc4cccc(Cl)c24)C3)C[C@@H]1CC#N [Example 57, (S)-2-(4-(7-(8-chloronaphthalen-1-yl)-2-((1-((methylsulfonyl)methyl)cyclopropyl)methoxy)-5,6,7,8-tetrahydropyrido[3,4-d]pyrimidin-4-yl)-1-(2-fluoroacroloyl)piperazin-2-yl) acetonitrile] | 1300
C=C(F)C(=O)N1CCN(c2nc(OCC3(CN4CCC4)CC3)nc3c2CCN(c2cccc4ccc(F)c(Cl)c24)C3)C[C@@H]1CC#N [Example 58, (S)-2-(4-(2-((1-(azetidin-1-ylmethyl)cyclopropyl)methoxy)-7-(8-chloro-7-fluoronaphthalen-1-yl)-5,6,7,8-tetrahydropyrido[3,4-d]pyrimidin-4-yl)-1-(2-fluoroacroloyl)piperazin-2-yl) acetonitrile] | 65
C=C(F)C(=O)N1CCN(c2nc(OCC3(CN4CC(F)(F)C4)CC3)nc3c2CCN(c2cccc4ccc(F)c(Cl)c24)C3)C[C@@H]1CC#N [Example 59] | 810
C=C(F)C(=O)N1CCN(c2nc(OCC3(CN(CC)CC)CC3)nc3c2CCN(c2cccc4ccc(F)c(Cl)c24)C3)C[C@@H]1CC#N [Example 60, (S)-2-(4-(7-(8-chloro-7-fluoronaphthalen-1-yl)-2-((1-((diethylamino)methyl)cyclopropyl)methoxy)-5,6,7,8-tetrahydropyrido[3,4-d]pyrimidin-4-yl)-1-(2-fluoroacroloyl)piperazin-2-yl) acetonitrile] | 92
C=C(F)C(=O)N1CCN(c2nc(OCC3(CN(C)C(C)C)CC3)nc3c2CCN(c2cccc4ccc(F)c(Cl)c24)C3)C[C@@H]1CC#N [Example 61, (S)-2-(4-(7-(8-chloro-7-fluoronaphthalen-1-yl)-2-((1-((isopropyl(methyl)amino)methyl)cyclopropyl)methoxy)-5,6,7,8-tetrahydropyrido [3,4-d]pyrimidin-4-yl)-1-(2-fluoroacroloyl)piperazin-2-yl) acetonitrile] | 110
C=C(F)C(=O)N1CCN(c2nc(OCC3(CN(C)CC)CC3)nc3c2CCN(c2cccc4ccc(F)c(Cl)c24)C3)C[C@@H]1CC#N [Example 62, (S)-2-(4-(7-(8-chloro-7-fluoronaphthalen-1-yl)-2-((1-((ethyl(methyl)amino)methyl)cyclopropyl)methoxy)-5,6,7,8-tetrahydropyrido[3,4-d]pyrimidin-4-yl)-1-(2-fluoroacroloyl)piperazin-2-yl) acetonitrile] | 36
[2H]C([2H])([2H])N(CC1(COc2nc3c(c(N4CCN(C(=O)C(=C)F)[C@@H](CC#N)C4)n2)CCN(c2cccc4ccc(F)c(Cl)c24)C3)CC1)C([2H])([2H])[2H] [Example 63] | 7
C=C(F)C(=O)N1CCN(c2nc(OCC3(CN4CC(F)C4)CC3)nc3c2CCN(c2cccc4ccc(F)c(Cl)c24)C3)C[C@@H]1CC#N [Example 65, (S)-2-(4-(7-(8-chloro-7-fluoronaphthalen-1-yl)-2-((1-((3-fluoroazetidin-1-yl)methyl)cyclopropyl)methoxy)-5,6,7,8-tetrahydropyrido[3,4-d]pyrimidin-4-yl)-1-(2-fluoroacroloyl)piperazin-2-yl) acetonitrile] | 45
C=C(F)C(=O)N1CCN(c2nc(OCC3(CN4CC(F)C4)CC3)nc3c2CCN(c2cccc4ccc(F)cc24)C3)C[C@@H]1CC#N [Example 66] | 180
C=C(F)C(=O)N1CCN(c2nc(OCC3(CN4CC(C)C4)CC3)nc3c2CCN(c2cccc4ccc(F)c(Cl)c24)C3)C[C@@H]1CC#N [Example 67, (S)-2-(4-(7-(8-chloro-7-fluoronaphthalen-1-yl)-2-((1-((3-methylazetidin-1-yl)methyl)cyclopropyl)methoxy)-5,6,7,8-tetrahydropyrido[3,4-d]pyrimidin-4-yl)-1-(2-fluoroacroloyl)piperazin-2-yl) acetonitrile] | 51
C=C(F)C(=O)N1CCN(c2nc(OCC3(CN4CC(O)C4)CC3)nc3c2CCN(c2cccc4ccc(F)c(Cl)c24)C3)C[C@@H]1CC#N [Example 68, (S)-2-(4-(7-(8-chloro-7-fluoronaphthalen-1-yl)-2-((1-((3-hydroxyazetidin-1-yl)methyl)cyclopropyl)methoxy)-5,6,7,8-tetrahydropyrido [3,4-d]pyrimidin-4-yl)-1-(2-fluoroacroloyl)piperazin-2-yl) acetonitrile] | 86
C=C(F)C(=O)N1CCN(c2nc(OCC3(CN(C)CCOC)CC3)nc3c2CCN(c2cccc4cccc(Cl)c24)C3)C[C@@H]1CC#N [Example 69] | 59
C=CC(=O)N1CCN(c2nc(OCCN(C)C3CC(F)(F)C3)nc3c2CCN(c2cccc4cccc(C)c24)C3)CC1CC#N (stereo not shown) [Example 85] | < 100
C=CC(=O)N1CCN(c2nc(OC[C@@H](C)N(C)C3CCC3)nc3c2CCN(c2cccc4cccc(C)c24)C3)CC1CC#N (stereo partly drawn) [Example 92, 2-(1-acroloyl-4-(2-((R)-2-(cyclobutyl(methyl)amino)propoxy)-7-(8-methylnaphthalen-1-yl)-5,6,7,8-tetrahydropyrido[3,4-d]pyrimidin-4-yl)piperazin-2-yl) acetonitrile] | < 100
C=CC(=O)N1CCN(c2nc(OCCN(C)CC3CC3)nc3c2CCN(c2cccc(F)c2C(F)(F)F)C3)CC1 [Example 95] | 6260
